The numbers were not newly measured in paper PMC6272846, “Synthesis and p38 Inhibitory Activity of Some Novel Substituted N,N′-Diarylurea Derivatives” (Molecules, 2016), which cites them from elsewhere.

The structures appear in SMILES notation.

The term IC50 denotes the concentration needed to halve the response being measured.

The subject of data set [1] is TNF-α production, human whole blood. Also noted: method as in PMID 11896401. The note with it: read-out: IC50, inhibition of LPS-induced TNF-α production; cited from earlier work.
The test system of the next data set is TNF-α production. Also noted: method as in PMID 11896401. The note with it: 30 mg/kg p.o.; cited from earlier work.

For the compound `Cc1ccc(-n2nc(C(C)(C)C)cc2NC(=O)Nc2ccc(OCCN3CCOCC3)c3ccccc23)cc1` [BIRB-796, 1-(5-tert-butyl-2-p-tolyl-2h-pyrazol-3-yl)-3-[4-(2-morpholin-4-yl-ethoxy)naph-thalen-1-yl]urea], the 50% inhibitory concentration (IC50) in data set [1] was 780 nM. In addition, the “inhibition of LPS-induced TNF-α production in mice in vivo” value in the data set on TNF-α production was 84%.
